The results in this text go back to PubChem BioAssay AID328 (DTP/NCI, 2004).

The experiment concerns BDF1 mice, P388 leukemia ip, median survival T/C. The experiment can be described thus: NCI In Vivo Anticancer Drug Screen. Data for tumor model P388 Leukemia (intraperitoneal) in B6D2F1 (BDF1) mice. Particulars: endpoint: median survival time, higher = longer survival. Summed up:
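Reported as T/C, where T is the survival measurement in dosed animals and C the same measurement in vehicle controls.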

[1] abbreviates: dose: 100.0 mg/kg/injection, schedule: Q04DX003 (ip), vehicle: saline with Tween-80.
[2] abbreviates: dose: 200.0 mg/kg/injection, schedule: Q04DX003 (ip), vehicle: saline with Tween-80.
Setting [3] is: dose: 400.0 mg/kg/injection, schedule: Q04DX003 (ip), vehicle: saline with Tween-80.
Where [4] appears, read: dose: 100.0 mg/kg/injection, schedule: Q01DX009 (ip), vehicle: saline with Tween-80.
Setting [5] is: dose: 200.0 mg/kg/injection, schedule: Q01DX009 (ip), vehicle: saline with Tween-80.
Where [6] appears, read: dose: 400.0 mg/kg/injection, schedule: Q01DX009 (ip), vehicle: saline with Tween-80.
[7] abbreviates: dose: 50.0 mg/kg/injection, schedule: Q01DX009 (ip), vehicle: saline with Tween-80.
Setting [8] is: dose: 25.0 mg/kg/injection, schedule: Q01DX009 (ip), vehicle: saline.
The mark [9] stands for this setting: dose: 100.0 mg/kg/injection, schedule: Q01DX009 (ip), vehicle: Klucel (hydroxypropylcellulose) (HPC).
[10] abbreviates: dose: 100.0 mg/kg/injection, schedule: Q04DX003 (ip), vehicle: Klucel (hydroxypropylcellulose) (HPC).
Where [11] appears, read: dose: 200.0 mg/kg/injection, schedule: Q04DX003 (ip), vehicle: Klucel (hydroxypropylcellulose) (HPC).
Where [12] appears, read: dose: 400.0 mg/kg/injection, schedule: Q04DX003 (ip), vehicle: Klucel (hydroxypropylcellulose) (HPC).
Setting [13] is: dose: 50.0 mg/kg/injection, schedule: Q01DX009 (ip), vehicle: Klucel (hydroxypropylcellulose) (HPC).

Molecules are shown by their SMILES. “And” between values parts separate entries of the source, which are not always exact repeats. Identical values can stand only once. Toxic doses and inconclusive results are not listed.

For the compound `O/C(=C\C(=S)S)c1ccc(Cl)cc1`, the T/C (dose: 0.39 mg/kg/injection, schedule: Q04DX003 (ip), vehicle: saline with Tween-80) was 100 % of control; the T/C (dose: 0.78 mg/kg/injection, schedule: Q01DX009 (ip), vehicle: saline with Tween-80) is 97 % of control; the T/C (dose: 0.78 mg/kg/injection, schedule: Q04DX003 (ip), vehicle: saline with Tween-80) is 92 % of control and 106 % of control (2×); the T/C (dose: 1.56 mg/kg/injection, schedule: Q01DX009 (ip), vehicle: saline with Tween-80) is 118 % of control; the T/C (dose: 1.56 mg/kg/injection, schedule: Q04DX003 (ip), vehicle: saline with Tween-80) was 97 % of control and 113 % of control; the T/C (dose: 3.12 mg/kg/injection, schedule: Q01DX009 (ip), vehicle: saline with Tween-80) was 106 % of control. Further, the T/C (dose: 3.12 mg/kg/injection, schedule: Q04DX003 (ip), vehicle: saline with Tween-80) is 95 % of control and 100 % of control and 120 % of control; the T/C (dose: 6.25 mg/kg/injection, schedule: Q01DX009 (ip), vehicle: saline with Tween-80) is 112 % of control; the T/C (dose: 6.25 mg/kg/injection, schedule: Q04DX003 (ip), vehicle: saline with Tween-80) is 88 % of control and 103 % of control; the T/C (dose: 12.5 mg/kg/injection, schedule: Q01DX009 (ip), vehicle: saline with Tween-80) was 86 % of control.

Turning to `COc1ccc(Cl)cc1NC(=O)NNC(=O)C(=O)Nc1ccc(F)cc1`, the T/C was 91 % of control (dose: 50.0 mg/kg/injection, schedule: Q01DX005 (ip), vehicle: saline with Tween-80); 91 % of control (dose: 100.0 mg/kg/injection, schedule: Q01DX005 (ip), vehicle: saline with Tween-80); 100 % of control (dose: 200.0 mg/kg/injection, schedule: Q01DX005 (ip), vehicle: saline with Tween-80).

Take `OC(CBr)c1ccc(Cl)cc1` (stereo not drawn): the T/C is 100 % of control under setting [1], 95 % of control under setting [2] and 95 % of control under setting [3].

Turning to `COc1cc(O)c2c(c1O)C(=O)c1cc(C)ncc1C2=O`, the T/C by setting is: under setting [4], 91 % of control; under setting [5], 91 % of control; under setting [6], 91 % of control.

As to `S=c1[nH]nc2n1NC(c1ccccc1)=NN2`, the T/C is 91 % of control under setting [1], 87 % of control under setting [2] and 95 % of control under setting [3].

As to `O=C(OC1c2ccccc2C2CC21)c1cc([N+](=O)[O-])cc([N+](=O)[O-])c1` (stereo not drawn), the T/C under setting [7] was 100 % of control, the T/C under setting [4] was 104 % of control and the T/C under setting [5] was 104 % of control.

Regarding `FC(F)(F)c1cc(CN(CCCl)CCCl)cc(C(F)(F)F)c1`, the T/C by setting is: (dose: 12.5 mg/kg/injection, schedule: Q01DX009 (ip), vehicle: Klucel (hydroxypropylcellulose) (HPC)) 101 % of control; (dose: 12.5 mg/kg/injection, schedule: Q01DX009 (ip), vehicle: other) 116 % of control; (dose: 12.5 mg/kg/injection, schedule: Q01DX009 (ip), vehicle: saline) 100 % of control; (dose: 25.0 mg/kg/injection, schedule: Q01DX009 (ip), vehicle: Klucel (hydroxypropylcellulose) (HPC)) 108 % of control and 120 % of control; under setting [8], 188 % of control; (dose: 50.0 mg/kg/injection, schedule: Q01DX009 (ip), vehicle: other) 150 % of control. The T/C is 172 % of control (dose: 50.0 mg/kg/injection, schedule: Q01DX009 (ip), vehicle: saline); 153 % of control and 165 % of control under setting [9]; 194 % of control (dose: 100.0 mg/kg/injection, schedule: Q01DX009 (ip), vehicle: saline).

On to `S=c1nc(COc2ccccc2Cl)[nH][nH]1`, for which the T/C under setting [1] was 100 % of control, the T/C under setting [2] is 109 % of control and the T/C under setting [3] is 104 % of control.

`COC(=O)CCC(=O)Nc1ccc(C(=O)CBr)cc1`: the T/C (dose: 25.0 mg/kg/injection, schedule: Q04DX003 (ip), vehicle: Klucel (hydroxypropylcellulose) (HPC)) is 107 % of control and the T/C (dose: 50.0 mg/kg/injection, schedule: Q04DX003 (ip), vehicle: Klucel (hydroxypropylcellulose) (HPC)) was 97 % of control.

As to `Cc1cc2nc(Cc3nc4cc(C)c(C)cc4[nH]3)[nH]c2cc1C`, the T/C reads like this: under setting [1], 95 % of control; under setting [2], 90 % of control; under setting [3], 95 % of control.

For the compound `C1CCC2(CC1)OCCO2`, the T/C is, setting by setting: (dose: 25.0 mg/kg/injection, schedule: Q01DX009 (ip), vehicle: saline with Tween-80) 87 % of control; under setting [7], 97 % of control; under setting [4], 100 % of control; under setting [5], 106 % of control.

Turning to `NCC(=O)O.[Cl][Ga]([Cl])[Cl]`, under setting [8], the T/C is 120 % of control.

For the compound `CC(=O)CC(C)=O.CC(=O)CC(C)=O.CC(=O)CC(C)=O.[In]`, the T/C reads like this: (dose: 100.0 mg/kg/injection, schedule: Q04DX003 (ip), vehicle: saline) 109 % of control; (dose: 200.0 mg/kg/injection, schedule: Q04DX003 (ip), vehicle: saline) 104 % of control.

As to `O=C(NC(=S)N1CC=CCC1)c1ccccc1`, the T/C by setting is: under setting [7], 87 % of control; under setting [4], 111 % of control; under setting [5], 108 % of control; under setting [6], 101 % of control.

Turning to `CCCCCCCCCCCCCCCCCCOC(=O)Cc1ccc(N(CCCl)CCCl)cc1`, the T/C is 123 % of control (dose: 50.0 mg/kg/injection, schedule: Q04DX002 (ip), vehicle: Klucel (hydroxypropylcellulose) (HPC)); 153 % of control (dose: 66.0 mg/kg/injection, schedule: Q01DX007 (ip), vehicle: Klucel (hydroxypropylcellulose) (HPC)); 165 % of control (dose: 100.0 mg/kg/injection, schedule: Q01DX007 (ip), vehicle: Klucel (hydroxypropylcellulose) (HPC)); 150 % of control under setting [9]; 104 % of control (dose: 100.0 mg/kg/injection, schedule: Q04DX002 (ip), vehicle: Klucel (hydroxypropylcellulose) (HPC)); 113 % of control under setting [10]. Moreover, the T/C was 173 % of control (dose: 150.0 mg/kg/injection, schedule: Q01DX007 (ip), vehicle: Klucel (hydroxypropylcellulose) (HPC)); 100 % of control (dose: 180.0 mg/kg/injection, schedule: Q04DX003 (ip), vehicle: saline with Tween-80); 118 % of control under setting [11]; 123 % of control (dose: 400.0 mg/kg/injection, schedule: Q01DX009 (ip), vehicle: Klucel (hydroxypropylcellulose) (HPC)); 180 % of control (dose: 400.0 mg/kg/injection, schedule: Q04DX002 (ip), vehicle: Klucel (hydroxypropylcellulose) (HPC)); 250 % of control and 159 % of control under setting [12]. The T/C under setting [3] is 166 % of control; the T/C (dose: 600.0 mg/kg/injection, schedule: Q04DX003 (ip), vehicle: Klucel (hydroxypropylcellulose) (HPC)) is 208 % of control; the T/C (dose: 600.0 mg/kg/injection, schedule: Q04DX003 (ip), vehicle: saline with Tween-80) is 150 % of control.

On to `CN(C)C=C1C(=O)N(C)C(=O)N(C)C1=O`, for which the T/C runs as follows: (dose: 100.0 mg/kg/injection, schedule: Q04DX002 (ip), vehicle: saline) 101 % of control; (dose: 200.0 mg/kg/injection, schedule: Q04DX002 (ip), vehicle: saline) 108 % of control; (dose: 400.0 mg/kg/injection, schedule: Q04DX002 (ip), vehicle: saline) 112 % of control.

`CC1(c2cccc3ccccc23)NC(=O)c2ccccc2N1` (stereo not drawn): the T/C by setting is: under setting [13], 105 % of control; under setting [9], 120 % of control.

For `COc1ccc(N=C(c2ccccc2)c2ccccc2)cc1`, the T/C is 91 % of control under setting [4]; 92 % of control under setting [1]; 108 % of control under setting [5]; 100 % of control under setting [2]; 108 % of control under setting [6]; 96 % of control under setting [3].

For the compound `CCN(C(=O)C(F)(F)F)C1(c2ccc(Cl)cc2)CCCCC1SSSC1CCCCC1(c1ccc(Cl)cc1)N(CC)C(=O)C(F)(F)F` (stereo not drawn), the T/C under setting [1] was 100 % of control, the T/C under setting [2] is 100 % of control and the T/C under setting [3] is 104 % of control.

For `O=[N+]([O-])c1ccc(C2OC2c2ccccc2)cc1` (stereo not drawn), the T/C was 122 % of control under setting [13]; 111 % of control under setting [9]; 95 % of control and 120 % of control under setting [10]; 111 % of control (dose: 200.0 mg/kg/injection, schedule: Q01DX009 (ip), vehicle: Klucel (hydroxypropylcellulose) (HPC)); 110 % of control under setting [11]; 91 % of control and 110 % of control under setting [12].
